# Marks after values point to notes of the source that are not given here.
# How the values were obtained:
# physchem = conditions: water
# [1] = Physical stability of aqueous corticosteroid solutions (ethanol stock added to saline or x-ray contrast agent)
# [2] = system: focal cerebral ischemia (middle cerebral artery occlusion); test: Focal cerebral ischemia, intraluminal suture occlusion of the middle cerebral artery (MCAO); relative infarction volume by TTC staining; assay type: in vivo; conditions: for Relative infarction volume expressed as percent of the total brain volume of the right hemisphere, mean: 0.012 mg/kg intrathecal single dose (example 3), control 18.08, n 15
# [3] = Solubility in water at room temperature
# [4] = Blood glucose with glucose oxidase reagent strips in the MCAO animals of Example 5; conditions: intrathecal 0.012 mg/kg; venous blood preoperatively, prior to, 2 h and 24 h after administration; versus saline control (FIG. 1)
# [5] = Isovist 300, time after mixing 0
solubility (physchem) [µg/mL],"Physical stability (appearance) ([1]; Saline, 2 h after mixing)","Physical stability (appearance) ([1]; Ultravist 300, 2 h after mixing)","Physical stability (appearance) ([1]; Ultravist 300, 48 h after mixing)","Physical stability (appearance) ([1]; Ultravist 300, time after mixing 0)",SMILES,"Physical stability (appearance) ([1]; Isovist 300, 2 h after mixing)","Physical stability (appearance) ([1]; Isovist 300, 48 h after mixing)","Physical stability (appearance) [1, 5]","Physical stability (appearance) ([1]; Saline, time after mixing 0)","Relative infarction volume expressed as percent of the total brain volume of the right hemisphere, mean ([2]; drug administration 30 Min after MCAO)","Relative infarction volume expressed as percent of the total brain volume of the right hemisphere, mean ([2]; drug administration 1 h after MCAO)","Relative infarction volume expressed as percent of the total brain volume of the right hemisphere, mean ([2]; drug administration 2 h after MCAO)","Relative infarction volume expressed as percent of the total brain volume of the right hemisphere, mean ([2]; drug administration 4 h after MCAO)","reduction in infarction size compared to controls ([2]; 0.012 mg/kg intrathecally, preparation of example 2, 30 minutes after MCA occlusion) [%]","infarction volume (percent of the total brain volume of the right hemisphere) ([2]; 0.012 mg/kg intrathecally, preparation of example 2, 30 minutes after MCA occlusion, sacrificed 24 h after MCAO, controls 20.0±8.0%, p=0.02) [%]",solubility [3] [µg/mL],effect on blood glucose [4],"Physical stability (appearance) ([1]; Ultravist 370, 2 h after mixing)","Physical stability (appearance) ([1]; Ultravist 370, 48 h after mixing)","Physical stability (appearance) ([1]; Ultravist 370, time after mixing 0)"
~85,clear,clear,clear,clear,"C[C@@H]1C[C@H]2[C@@H]3CCC4=CC(=O)C=C[C@]4(C)[C@@]3(F)[C@@H](O)C[C@]2(C)[C@@]1(O)C(=O)CO [Dexamethasone, dexamethasone]",clear,clear,clear,clear,,,,,,,,,,,
,,,,,CC1(C)O[C@@H]2C[C@H]3[C@@H]4CCC5=CC(=O)C=C[C@]5(C)[C@@]4(F)[C@@H](O)C[C@]3(C)[C@]2(C(=O)CO)O1 [Triamcinolone acetonide],clear,fine particles,clear,clear (?),12.86* percent,9.68** percent,10.57* percent,9.05** percent,33,13.4±6.5,~20,does not cause any additional effect,clear,clear,clear
